# Measured values taken from patent US20110065749A1, “METHOD AND PHARMACEUTICAL COMPOSITION FOR TREATMENT OF MENTAL DISORDERS” (ACTIVE CO. LTD., priority 2008, published 2011).
# Structures can show the parent of a compound that is named as a salt.
# Assays:
# [1] = tested on: Attention Deficit Hyperactivity Disorder (ADHD); test: Case 1: ADHD patient treated with Cephadol; type: in vivo, human
# Procedure: Case 1: Attention Deficit Hyperactivity Disorder (ADHD)
# Patient was a person, who had often shown violent behaviors. Quarreling with a bad-mannered person on the road and performing violent acts such as hitting had occurred once or twice a week. […] When they discontinued the medication with 75 mg/day Cephadol®, the symptom returned to the previous state. The effect of Cephadol® appeared in about two days, and the symptom returned to the original state in 5 days after discontinuation of the drug.
# [2] = tested on: Schizophrenia; test: Case 12: schizophrenia patient; type: in vivo, human; settings: 150 mg/day
# Source text: A person had been diagnosed with schizophrenia and had received antipsychotic drugs. In spite of the treatment with newest antipsychotic drugs, the dullness of thinking, depression, and obesity of the patient were not improved.
# [3] = tested on: Alzheimer-Type Dementia; test: Case 4: Alzheimer-type dementia patient; type: in vivo, human; settings: 50 mg before sleeping, added to donepezil hydrochloride
# Source text: Case 4: Alzheimer-Type Dementia
# [4] = tested on: Insomnia; test: Case 11: insomnia in an elderly person; type: in vivo, human
# Procedure: Case 11: Insomnia in an Elderly Person A person had had no history of insomnia or depression before they retired from their company at mandatory retirement age. […] Being seriously distressed by insomnia, they had been prescribed hypnotics at two or three mental clinics. The hypnotics had made them easily fall down when going to the bathroom at night, and made them feel half awake in the morning, with memory impairment. The patient was started on 50 mg Cephadol® twice a day (after dinner and before sleeping).
# [5] = tested on: Alcoholism; test: Case 6: alcoholism patient; type: in vivo, human
# Source text: Case 6: Alcoholism Patient was a office worker, who was drinking 1 to 2 liters of beer and 3 to 5 glasses of distilled spirit or whisky with water every day. They were drinking alcohol in daytime on Sundays, and suffering from a complication of liver dysfunction.
# [6] = tested on: Stiff Neck; test: Case 14: seven subjects having stiff neck; type: in vivo, human; settings: two 25 mg tablets two times a day, after two days, all seven subjects
# Procedure: Case 14: Stiff Neck Stiff neck is often observed as a subjective symptom, and is one of the most serious complaints in the daily life. Seven subjects having stiff neck were given two 25 mg tablets of Cephadol® two times a day (after dinner and before sleeping).
# [7] = tested on: Fibromyalgia; test: Case 16: fibromyalgia (2) patient; type: in vivo, human
# Source text: […] There were persistent systemic malaise, lassitude, depressed mood, sleeplessness, neck stiffness and systemic pain. Their score of depression on Hamilton D scale was 25 to 28. No hematological abnormality was detected. As a result of overall judgment based on examinations including a tender point examination, they were diagnosed as having fibromyalgia. They were unresponsive to tricyclic or tetracyclic antidepressants, SSRIs, SNRIs, and Moclobemide. Then, they continued the treatment with 60 mg/day fluoxetine. […] It was concluded that the onset of their depression was due to the systemic pain, and the depression was improved by the drastic improvement of the systemic pain.
# [8] = tested on: Fibromyalgia; test: Case 15: fibromyalgia (1) patient; type: in vivo, human
# Procedure: They then visited the inventor's clinic. When the inventor started the treatment with 75 mg/day Cephadol®, systemic pain of the patient was improved in two days. […] As a result, they became able to perform usual household work, go outside, and further make a trip.
# [9] = tested on: evoked potential of hypothalamus by vestibular nuclei stimulation; settings: rat experiments; cited from earlier work
# [10] = tested on: Bulimia; test: Case 7: bulimia (1) patient; type: in vivo, human; settings: 150 mg/day
# Source text: Patient was a person, who had been suffering from bulimia. Antidepressant, antianxiety, and other drugs were all ineffective. […] The effect of Cephadol® appeared in about two days.
# [11] = 50 mg twice a day, hypnotics halved
smiles,measurement,setting,value
"OC(CCCN1CCCCC1)(c1ccccc1)c1ccccc1 [Cephadol®, 1,1-diphenyl-4-piperidine-1-ylbuthan-1-ol monohydrochloride]",side effects,[1]; 75 mg/day,no side effects
same,impulsivity,"[1]; 75 mg/day, on day seven",disappearance of the impulsivity
same,impulsivity,"[1]; 75 mg/day, on day two",reduction of impulsivity
same,time until the symptom returned to the original state after discontinuation of the drug,[1]; after discontinuation of 75 mg/day,5 days
same,appetite and body weight,[2],reduced their appetite and body weight
same,side effects and relapse of schizophrenia,[2],"no side effects, nor relapse of schizophrenia"
same,thinking speed and depression,[2],improved their subjective and objective thinking speed and depression
same,excitation caused by donepezil hydrochloride,[3],reduced the excitation
same,dose of concomitant hypnotics,[4]; 50 mg twice a day,reduced in dose by half
same,side effects,[4]; 50 mg twice a day,no side effects
same,sleep,[4]; 50 mg twice a day (after dinner and before sleeping),became able to sleep well
same,memory impairment on the next morning,[4]; [11],without memory impairment
same,staggering gait on awaking at night,[4]; [11],free from staggering gait on awaking at night
same,overdrinking,[5]; 150 mg/day continued for three months,without any emergence of overdrinking
same,side effects,[5]; 150 mg/day for three months,without any side effects
same,impulse to drink alcohol,"[5]; 150 mg/day, on the next day",eliminated their impulse to drink alcohol
same,restlessness and anxiety,"[5]; 150 mg/day, on the next day",eliminated their restlessness and anxiety
same,stiff neck symptom,[6],disappearance or a significant improvement of the symptom
same,score of Hamilton D scale,"[7]; 100 mg/day added to fluoxetine, 25 to 28 before",16
same,neck stiffness and systemic pain,"[7]; 100 mg/day for one week, added to 60 mg/day fluoxetine",reduced neck stiffness and systemic pain
same,activity of daily living,"[7]; 100 mg/day, after two weeks",improved drastically
same,systemic pain,"[8]; 75 mg/day, in two days",improved
same,mobility of large joints (objective),[8]; 150 mg/day,the mobility of large joints increased
same,pain at 18 tender points including low back pain,[8]; 150 mg/day,totally improved
same,arthralgia,"[8]; 150 mg/day, increased one week later",complete elimination of arthralgia
same,evoked potential of hypothalamus by vestibular nuclei stimulation,[9],inhibited the evoked potential of hypothalamus by vestibular nuclei stimulation
same,side effects,[10],no side effects
same,overeating,[10]; previously two to three times a day,significantly improved overeating
